Data as given in BindingDB's records for doi:10.1016/0960-894X(96)00399-X (1996).

Target: Inositol 1,4,5-trisphosphate receptor type 1 (Rattus norvegicus)
Experiment: Compound was tested for inhibition of specific [3H]Ins(1,4,5)P3 binding to Inositol 1,4,5-trisphosphate receptor in rat cerebellar membranes.

Question: With `O=P(O)(O)OC1C(O)C(CO)C(OP(=O)(O)O)C(OP(=O)(O)O)C1O` [Phosphoric acid mono-((3S,5R,6R)-3,5-dihydroxy-2-hydroxymethyl-4,6-bis-phosphonooxy-cyclohexyl) ester] as the molecule, how does the IC50 read?
Answer: Its IC50 is 27 nM.
